# How the values were obtained:
# Ramos cells = assay: Proliferation study with Wee-1/Myt-1 inhibitors and ^177Lu-lilotomab; assay type: cell-based, human; settings: inhibitor 1 μM + ^177Lu-lilotomab 6 MBq/mL (RIT) for 18 h, 6 days after start
# Method: (§1) Cells were treated for 18 h with 1 μM of the selective Wee-1 kinase inhibitor MK-1775 (Selleckchem, Houston, USA) or of the dual Wee-1/Myt-1 inhibitor PD-166285 (EMD Merck Millipore/Calbiochem, Molsheim, France) alone or in combination with 6 MBq/mL, 2 MBq/mL and 0.5 MB/mL of ^177Lu-lilotomab for Ramos, Rec-1 and DOHH2 cells respectively. At different times after start of incubation, proteins were extracted to measure the CDK1 phosphorylation levels, in parallel, proliferation was determined and at 18 h and 24 h after start of incubation, the percentage of cells in G2/M was assessed (experiments were performed three time except the cell cycle analysis).
# (§2) The activity used for the treatment with ^177Lu-lilotomab was chosen to decrease the proliferation to about 50% for the three cell lines compared with non-treated cells.
# (§3) Inhibition of G2/M cell cycle arrest radiosensitises radioresistant Ramos model. The Bliss independence mathematical model was next used to investigate the role of MK-1775 or PD-166285 on the response to ^177Lu-lilotomab. A theoretical therapeutic efficacy was calculated for the two combinations (MK-1775 or PD-166285) in the three cell lines. And the comparison between the experimental and the theoretical curves was done.
# (§4) Theoretical efficacyRIT+inhib=EfficacyRIT+Efficacyinhib−(EfficacyRIT×Efficacyinhib)
# Rec-1 cells = assay: as above; assay type: cell-based, human; settings: Rec-1, inhibitor 1 μM + ^177Lu-lilotomab 2 MBq/mL for 18 h, versus either alone
# Method: as §1, §2, §3, §4
# DOHH2 cells = assay: Alamar Blue cytotoxicity study; assay type: cell-based, human; settings: Homo sapiens, DOHH-2; DOHH2, 72 h incubation after seeding; read-out: IC50
# Method: (§5) Cells were treated with either Humalutin, olaparib or a combination of both and seeded into 96 well-plates. At each time point after treatment, cells were incubated with Alamar Blue (Thermo Fisher, DALL1100) for 4 hours and fluorescence measurements were performed using a multiplate reader Fluoroskan ascent FL to assess cell proliferation and viability. All experiments were done in duplicates using 2 samples in each experiment. Data were normalized to the untreated controls.
# (§6) Cells were incubated with 0.25, 0.5, 1, 2.5 or 5 μg/ml of Humalutin in cell culture flasks and incubated at 37° C./5% CO2. After 18-20 hours cells were washed and resuspended in fresh medium. Cell bound activity after washing was measured using a calibrated gamma detector (Cobra II auto-gamma detector, Packard Instrument Company, Meriden, Conn., USA). Cell concentration and viability was also measured after washing using Guava ViaCount Cell Dispersal Reagent for Flow Cytometry (Merck GaA, Darmstadt, Germany) and measured in a Guava EasyCyte 12HT (Merck KGaA, Darmstadt, Germany) to determine how well the cells survived the incubation. Cells were seeded in 96 well plates.
# (§7) Cells were seeded in 96 well plates pre-coated with from 1 to 100 μM olaparib in 0.2 ml medium and incubated at 37° C./5% CO2 for 72 hours before the cytotoxic effect was measured using alamar blue cell viability assay.
# (§8) Cells were incubated with either 0, 0.5 μg/ml or 1 μg/ml Humalutin and the same procedure as described before for treatment with humalutin alone and olaparib alone was followed. Concentrations of olaparib used were between 1 and 100 μM.
# (§9) The Chou-Talalay model was used for synergy calculations using the Compusyn software. R (goodness of fit) was calculated for the individual treatments and should be over 0.90 in in vitro culture experiments in order to use the calculated combination index (CI). The CI is an indication of synergy: 0-0.9 is considered synergy. Synergysm grading was used as described in WO2006004917A2. […]
# as §6, with “viability were” for “viability was”, “plates. Alamar blue viability measurements were performed 120 h after seeding.” for “plates.”
# Granta 519 cells = assay: Alamar Blue cytotoxicity study; assay type: cell-based, human; settings: Homo sapiens; Granta 519, 72 h incubation after seeding; read-out: IC50
# Method: as §5, §6, §7, §8, §9
# as §6, with “viability were” for “viability was”, “plates. Alamar blue viability measurements were performed 120 h after seeding.” for “plates.”
# [1] = system: CD133 and CD44 at the DOHH2 cell surface; assay: Expression of stem cell markers after RIT (flow cytometry); assay type: cell-based, human; settings: DOHH2, 6 MBq/mL for 18 h, up to 9 days post-RIT
# Method: Cells were harvested at 0, 2 h, 18 h and each day from 1 d to 10 d of RIT. At each time point, cells were fixed with PFA 4% for 10 minutes, washed twice with PBS and sterilely stored in PBS at 4° C. Stem cell markers were detected with anti-CD133-FITC (clone: AC133, Milteniy) and anti-CD44-APC (clone: IM7, Merck Millipore). 0.5×10^6 cells were saturated for 1 h in PBS-BSA 0.5%. Next cells were centrifuged and incubated with anti-CD133-FITC (2 μL) and anti-CD44-APC (0.125 μg) for 1 h at room temperature in the dark. Finally, cells were rinsed twice and analysed using Gallios® flow cytometer (Beckman Coulter).
# For a preliminary study, investigation of the expression of CD133 and CD44 at the surface of cells treated for 18 h with 6 MBq/mL ^177Lu-lilotomab and ^177Lu-rituximab was done.
# [2] = system: CD3-/CD20+ cells from biopsies of patients with DLBCL or FL; settings: 4 patient biopsies, 18 h exposure, day 4
# Method: Frozen human biopsies from patients with DLBCL or FL were obtained from CHU de Montpellier Plateforme CRB/Hemodiag. Typically, cells were defrosted and grown at 0.5×10^6 cells/mL in 12-well plates at 37° C. in a humidified atmosphere of 95% air/5% CO2. Culture medium consisted of RPMI medium supplemented with 20% heat-inactivated fetal bovine serum, antibiotics ([…] penicillin and 100 μg/ml streptomycin), 50 ng/mL CD40L (His tagged; R&D system) and 5 μg/mL anti-his-tag antibody (R&D system, Abingdon, UK). After 5 h, they were treated with increasing amount of ^177Lu-lilotomab (0 to 6 MBq/mL) combined or not with MK-1775 or PD-166285 (1 μM) for 18 h. At the end of incubation, 50% of cells were analyzed by flow cytometry and the remaining cells were collected, centrifuged and washed twice with medium before being seeded in 12-well plates for 3 days more. After 3 days, cells were collected and analyzed by flow cytometry. Live/Dead fixable dead cell stain (Fisher scientific), anti-CD45, CD3, CD19, CD20 and CD10 mAbs (BD Pharmigen, Le pont de Claix, France) and anti-Kappa mAb (DAKO, Les Ulis, France) were used and analyzed by flow cytometry to determine quantity and proportion of tumor and non-tumor cells alive.
molecule,measurement,setting,value
C=CCn1c(=O)c2cnc(Nc3ccc(N4CCN(C)CC4)cc3)nc2n1-c1cccc(C(C)(C)O)n1 [MK-1775],Proliferation (treated/untreated cells),Ramos cells,~10%
same,Proliferation (treated/untreated cells),Rec-1 cells,statistically reduced the proliferation
CC1(C)CCC(CN2CCN(c3ccc(C(=O)NS(=O)(=O)c4ccc(NCC5CCOCC5)c([N+](=O)[O-])c4)c(Oc4cnc5[nH]ccc5c4)c3)CC2)=C(c2ccc(Cl)cc2)C1 [venetoclax],IC50,DOHH2 cells,2980 nM
same,IC50,Granta 519 cells,331 nM
"Lutetium-177 [^177Lu]-lilotomab satetraxetan (conjugate, chains of the INN, looked up, 177Lu satetraxetan chelator conjugate) VH: EIQLQQSGPELVKPGASVKVSCKASGYSFTDYNMYWVKQSHGKSLEWIGYIDPYNGDTTYNQKFKGKATLTVDKSSSTAFIHLNSLTSEDSAVYYCARSPYGHYAMDYWGQGTSVTVSS VL: DIVMTQSHKLLSTSVGDRVSITCKASQDVSTAVDWYQQKPGQSPKLLINWASTRHTGVPDRFTGSGSGTDYTLTISSMQAEDLALYYCRQHYSTPFTFGSGTKLEIK",Proportion of cells expressing CD44 and CD133,[1],strongly increased
same,Proportion of tumor cells,[2],reduced the proportion of tumor cells

# Source: patent US20210106703A1, “RADIOIMMUNOCONJUGATES IN COMBINATION WITH OTHER DRUGS AS TREATMENT AGAINST NHL” (Nordic Nanovector ASA, priority 2017, published 2021)
